Source: ChEMBL document CHEMBL1201862, “PubChem BioAssay data set” (2004)
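Tested at 5 concentrations; 48 h exposure; 96-well plates; endpoints linearly interpolated, else capped at highest concentration. Here, GI50 denotes the concentration required for 50% inhibition of growth.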 Activity calls are given as the source filed them. No stated cut-off is given here; in the data, active = GI50 up to about 1.1 µM and inactive = higher.

Columns and labels:
Assay in all cases: NCI anticancer screen, dose series, 48 h
786-0 = system: 786-0
K562 = system: K562
NCI-H23 = system: NCI-H23
SW-620 = system: SW-620
SK-MEL-28 = system: SK-MEL-28
LOX IMVI = system: LOX IMVI
OVCAR-8 = system: OVCAR-8
SF-539 = system: SF-539
SR = system: SR
HCC 2998 = system: HCC 2998
OVCAR-3 = system: OVCAR-3
Malme-3M = system: Malme-3M
SNB-75 = system: SNB-75
HCT-116 = system: HCT-116
SN12C = system: SN12C
KM-20L2 = system: KM-20L2
MDA-MB-435 = system: MDA-MB-435
NCI/ADR-RES = system: NCI/ADR-RES
T47D = system: T47D
MCF7 = system: MCF7

SMILES	GI50 (786-0)	GI50 (K562)	GI50 (NCI-H23)	GI50 (SW-620)	GI50 (SK-MEL-28)	GI50 (LOX IMVI)	GI50 (OVCAR-8)	GI50 (SF-539)	GI50 (SR)	GI50 (HCC 2998)	GI50 (OVCAR-3)	GI50 (Malme-3M)	GI50 (SNB-75)	GI50 (HCT-116)	GI50 (SN12C)	GI50 (KM-20L2)	GI50 (MDA-MB-435)	GI50 (NCI/ADR-RES)	GI50 (T47D)	GI50 (MCF7)
COC(CN1C(=O)c2cccc3cccc(c23)C1=O)OC	> 100 µM (inactive)	68.5 µM (inactive)	> 100 µM (inactive)	91.8 µM (inactive)	> 100 µM (inactive)	53.5 µM (inactive)	71 µM (inactive)	57.7 µM (inactive)	40.5 µM (inactive)	> 100 µM (inactive)	> 100 µM (inactive)	> 100 µM (inactive)	43.4 µM (inactive)	46.2 µM (inactive)	41.1 µM (inactive)	> 100 µM (inactive)	–	–	–	–
O=C(c1ccc(Cl)cc1Cl)C1[C@H]2C(=O)N(c3ccc(Cc4ccc(N5C(=O)[C@@H]6ON(c7ccccc7)C(C(=O)c7ccc(Cl)cc7Cl)[C@@H]6C5=O)cc4)cc3)C(=O)[C@H]2ON1c1ccccc1 (stereo not given in full)	> 50 µM (inactive)	> 50 µM (inactive)	> 50 µM (inactive)	> 50 µM (inactive)	> 50 µM (inactive)	> 50 µM (inactive)	> 50 µM (inactive)	> 50 µM (inactive)	> 50 µM (inactive)	> 50 µM (inactive)	> 50 µM (inactive)	> 50 µM (inactive)	> 50 µM (inactive)	> 50 µM (inactive)	> 50 µM (inactive)	> 50 µM (inactive)	–	–	–	–
CC(=O)NC(C=O)C(O[C@H](C)C(=O)NC(C)C(=O)NC(CCC(N)=O)C(=O)OCc1ccccc1)C(O)C(O)COC(=O)CCNc1c2ccccc2nc2cccc([N+](=O)[O-])c12 (stereo not given in full)	4.56 µM (inactive)	2.51 µM (inactive)	2.47 µM (inactive)	1.99 µM (inactive)	3.19 µM (inactive)	14.6 µM (inactive)	4.89 µM (inactive)	6.12 µM (inactive)	0.637 µM (active)	1.54 µM (inactive)	1.85 µM (inactive)	2.15 µM (inactive)	3.97 µM (inactive)	1.37 µM (inactive)	2.02 µM (inactive)	2 µM (inactive)	–	–	–	–
COc1ccc(CCC2c3cc(OC)c(OC)cc3CCN2C)cc1OC (stereo not given)	> 100 µM (inactive)	> 100 µM (inactive)	> 100 µM (inactive)	> 100 µM (inactive)	> 100 µM (inactive)	> 100 µM (inactive)	> 100 µM (inactive)	> 100 µM (inactive)	> 100 µM (inactive)	> 100 µM (inactive)	> 100 µM (inactive)	> 100 µM (inactive)	> 100 µM (inactive)	> 100 µM (inactive)	> 100 µM (inactive)	> 100 µM (inactive)	–	–	–	–
COC(=O)CC1C[C@H](C#N)N(C(=O)c2ccccc2)C[C@@H]1CC[N+](=O)[O-] (stereo not given in full)	> 100 µM (inactive)	> 100 µM (inactive)	> 100 µM (inactive)	> 100 µM (inactive)	> 100 µM (inactive)	> 100 µM (inactive)	> 100 µM (inactive)	> 100 µM (inactive)	> 100 µM (inactive)	> 100 µM (inactive)	> 100 µM (inactive)	> 100 µM (inactive)	> 100 µM (inactive)	> 100 µM (inactive)	> 100 µM (inactive)	> 100 µM (inactive)	–	–	–	–
Sc1ncnc2nc[nH]c12 [MERCAPTOPURINE ANHYDROUS]	2.03 µM (inactive)	0.351 µM (active)	3.89 µM (inactive)	6.38 µM (inactive)	372 µM (inactive)	0.383 µM (active)	2.54 µM (inactive)	2.49 µM (inactive)	1.24 µM (inactive)	3.51 µM (inactive)	0.857 µM (active)	3.66 µM (inactive)	8.75 µM (inactive)	2.37 µM (inactive)	23.8 µM (inactive)	1.92 µM (inactive)	1.44 µM (inactive)	3.56 µM (inactive)	3.55 µM (inactive)	1.64 µM (inactive)
